Laboratory results as given in paper PMC8470881, “Membrane Interactions of Latarcins: Antimicrobial Peptides from Spider Venom” (International Journal of Molecular Sciences, 2021).

What was measured:
[1] = system: Bacillus subtilis subsp. spizizenii (DSM 347), Staphylococcus xylosus (DSM 20267), Escherichia coli (DSM 1116), Acinetobacter sp. (DSM 586); settings: for MIC: irrespective of the bacterial strain (all four strains), Müller-Hinton medium, 20 h at 37 °C, maximum tested 256 µg/mL; for MIC (relative antimicrobial activity): relative activity over two Gram-positive and two Gram-negative strains
Procedure: The effect of latarcins against four types of bacteria was determined using a minimum inhibitory concentration (MIC) assay on two Gram-positive strains (Bacillus subtilis subsp. spizizenii and Staphylococcus xylosus) and two Gram-negative strains (Escherichia coli and Acinetobacter sp.). Although the antimicrobial activity of latarcins is well documented, these experiments served to ensure that all studies were performed on molecules that show the expected antimicrobial activity.
The minimum inhibitory concentration (MIC) was determined as previously reported. For each latarcin, MIC was determined against two Gram-positive strains, namely Bacillus subtilis subsp. spizizenii (DSM 347) and Staphylococcus xylosus (DSM 20267), and two Gram-negative strains: Escherichia coli (DSM 1116) and Acinetobacter sp. (DSM 586). Bacterial cultures were grown in Müller-Hinton medium (MHM) as described previously, and peptides were dissolved in sterile water containing 10% DMSO. The stock solution of peptides with 1024 µg/mL was prepared such that serial dilutions of peptides (from 256 µg/mL to 2 µg/mL) in MHM were prepared in 96-well plates with the penultimate column without peptide to act as positive control (no peptide) and the final column as negative control (no bacteria). Bacterial stock suspension was made with an OD of 0.2 units at 550 nm. This stock solution was further diluted (1:1000 for Gram-negative bacteria and 1:100 for Gram-positive bacteria), and subsequently, 50 µL of the resulting bacterial suspension was added to the wells except the final well to give a final concentration of 10^6 colony-forming units per mL. Afterwards, the 96-well plates were incubated at 37 °C for 20 h, and cellular respiration was detected by adding 20 µL of resazurin solution (200 µg/mL) for an additional 2 h at the same temperature.

human red blood cells = assay: Hemolysis assay; settings: peptide concentration 256 µg/mL, 30 min, 37 °C
Procedure: A hemolysis assay was performed to determine the activity of latarcins against human red blood cells, allowing us to compare the results to those of previous experiments in which rabbit erythrocytes were used. The activity was determined for each latarcin as a function of increasing concentration, up to a maximum of 256 µg of peptides per mL. […] The percentage hemolysis of the other peptides was determined at the highest tested concentration of 256 µg/mL.
The influence of latarcins on human erythrocytes was determined by using a hemolysis assay modified from previously published methods. Blood was obtained from the blood bank of the local hospital in Karlsruhe and stabilized with citrate phosphate dextrose buffer. Erythrocyte suspension (5 mL) was taken up in Tris buffer (45 mL, 172 mM, pH 7.6) at room temperature, gently mixed, and centrifuged (1500 rpm, 10 min). The supernatant solution was removed, and Tris wash was repeated twice with 45 mL as above. The washed erythrocytes (1 mL) were suspended in 9 mL Tris buffer to make the stock cell suspension, which was then further diluted to 0.25% (v/v) at 37 °C before use. Peptide stock solutions were prepared with 1024 µg/mL in Tris buffer containing 10% DMSO, and serial dilutions were prepared in the range of 512 µg/mL to 2 µg/mL as described previously. For the positive control, Triton X-100 (200 µL of 0.2% v/v) was used, and as the negative control, Tris buffer (200 µL, 172 mM) was used. Erythrocyte stock cell suspension (200 µL) was added to each of the samples and incubated for 30 min at 37 °C with gentle shaking before determining the percentage of hemolysis as described previously.

[2] = Circular dichroism spectroscopy (secondary structure); assay type: physicochemical; settings: for % Helix (CD): CD in DMPC/DMPG (7/3) SUVs, P/L = 1:50, 10 mM phosphate buffer pH 7.0, 30 °C, peptide 29.3 μM, deconvolution with CDSSTR, CONTIN-LL, SELCON-3
Description: Next, we compared the secondary structure of the full set of latarcins in the presence of lipid membranes, for which there are no complete data available yet.
The CD line shapes (Figure 2) were deconvoluted to estimate the secondary structure contributions (Supplementary Table S1) using the CDSSTR, CONTIN-LL, and SELCON-3 algorithms provided on the DICHROWEB online server as described previously. […] In peptides containing a high proportion of aromatic residues, such shifts of the long-wavelength band are well documented.
Small unilamellar vesicles (SUVs) for the CD measurements were prepared as follows. Weighed amounts of the lipid powders (DMPC, DMPG) were dissolved in chloroform/methanol 1/1 (v/v) to obtain 5 mg/mL stock solutions. For obtaining mixed DMPC/DMPG liposomes (7/3 molar ratio), the appropriate aliquots of these stock solutions were pipetted in a glass vial and thoroughly vortexed. The organic solvents were removed under a gentle stream of nitrogen gas, followed by 3 h of vacuum pumping in an exsiccator at a reduced pressure of 3-4 mbars to remove solvent residuals from the lipid film that had formed in the vial. The lipid film was dispersed by the addition of 10 mM phosphate buffer (PB) pH 7.0 and homogenized by vigorously vortexing for 10 × 1 min and 10 freeze–thaw cycles. SUVs were formed by sonication of the obtained multilamellar vesicles for 16 min in a strong ultrasonic bath (UTR 200, Hielscher, Germany). The temperature of the water in the ultrasonic bath was adjusted to 35 °C by circulating it through a thermostat to avoid overheating the samples. A weighed amount of the corresponding peptide was dissolved in water resulting in stock solutions with a peptide concentration of 0.5 mg/mL. For the final CD samples, each peptide stock solution was diluted to 29.3 μM and the corresponding lipid dispersion to 1.47 mM in 10 mM PB, resulting in a peptide-to-lipid (P/L) ratio of 1/50.
[…] The samples were measured in a 1-millimeter path length quartz glass cell (Suprasil, Hellma Müllheim, Germany) between 260 and 185 nm at 0.5 nm intervals. Spectra of the liposome samples were recorded at 30 °C, i.e., well above the phase transition temperature of the lipids, using a water-thermostated rectangular cell holder. Three repeat scans at a scan rate of 10 nm min^−1, 8 s response time, and 1 nm bandwidth were averaged for each sample, and the baseline spectrum of the respective peptide-free sample was subtracted from the sample spectrum. CD spectra were smoothened by a Savitzky-Golay filter (convolution width of 15 data points), which is implemented in the Jasco Spectra Analysis software.

[3] = Oriented circular dichroism (helix alignment in membrane); assay type: physicochemical; settings: DMPC/DMPG (7/3), P/L = 1:100, oriented hydrated bilayers, 30 °C
Description: This is the same lipid composition and peptide-to-lipid ratio as was used in conventional CD above (see Figure 2), but in contrast to the vesicular samples containing excess water, the oriented membranes for OCD are just about saturated with water.
The sign and intensity of the 208 nm band provide a characteristic signature of the helix tilt angle in the membrane [19]. For a helical peptide that lies flat on the bilayer surface, this band is the most intense.
To prepare oriented CD (OCD) samples, latarcins depending on their solubility were dissolved either in pure MeOH or CHCl3/MeOH 1/1 (v/v) and thoroughly mixed with appropriate aliquots of DMPC/DMPG solutions (7/3 molar ratio) in the same solvent. Each co-dissolved mixture with a peptide-to-lipid molar ratio of 1/100 was deposited on a quartz glass plate using a gas-tight syringe. To achieve a spot size of 12.5 mm on the 20 mm diameter plates (Suprasil QS, Hellma Optik GmbH, Jena, Germany), a volume of ~55–60 µL was used. The organic solvents were evaporated in a gentle stream of air until the sample appeared dry. The amounts of deposited lipid and peptide on the plate were always 0.29 μmole and 2.9 nmole, respectively. The peptide-lipid-film was further dried under reduced pressure for at least 3 h. Afterwards, each plate with the dried sample was fixed and sealed by a polymer O-ring in a cylindrical sample holder. The plate with the sample and a second window plate without the sample formed a compartment for controlled hydration. The holder was assembled in a custom-built hydration cell. In the inner compartment of the sample holder, the peptide-lipid film was hydrated for about 15 h at 30 °C and 97% relative humidity via the gas phase by a saturated K2SO4 solution contained in an adjacent cavity of the hydration cell. During hydration, the lipids spontaneously align as lipid bilayers that are macroscopically oriented perpendicular to the glass surface. For the measurement, the holder was transferred to an OCD sample cell that had been developed and built in-house [20]. It is computer-controlled and can be integrated into a Jasco spectropolarimeter as an accessory. The optical path runs along the cylindrical axis of the cell, i.e., normal to the quartz glass plate surface carrying the oriented lipid film. To reduce possible spectral artifacts caused by linear dichroism (LD) or linear birefringence (LB) due to imperfections in the sample, strain in the quartz glass or imperfect alignment of the windows, the OCD spectra were recorded in steps of 45° by rotation of the cell around the beam axis [19, 20]. At each angle, two scans were recorded from 260–185 nm as an average, using a scan rate of 20 nm min^−1, 4 s response time, and 1 nm bandwidth.

Substance | MIC [1] | MIC (relative antimicrobial activity) [1] | % Hemolysis (human red blood cells) | helical fold (CD) in buffer without lipids ([2]; 10 mM phosphate buffer pH 7, no lipids, 30 °C) | % Helix (CD) [2] | OCD: orientational state of the helix [3]
H-SWKSMAKKLKEYMEKLKQRA-NH2 [Ltc3a] | 8 to 32 µg/mL | ++ | 16% | ca. 30% | 87% | Slight tilt
H-QAFQTFKPDWNKIRYDAMKMQTSLGQMKKRFNL-OH [Ltc6a] |  | + | 3% |  | 65% | Aggregated
H-GLKDKFKSMGEKLKQYIQTWKAKF-NH2 [Ltc4a] | 8 to 32 µg/mL | ++ | 12% |  | 94% | 
G E TF D K L K E K L K TFYQ K LV E K A ED L K G D L K A K LS-acid [Ltc7] | > 256 µg/mL | − | 2% |  | 89% | Surface
H-GFFGKMKEYFKKFGASFKRRFANLKKRL-NH2 [Ltc5] | below 4 µg/mL | +++ | 27% |  | 85% | Surface
